Experimental data as given in patent publication US8008262B2, “β-peptides” (Yale University, priority 2004, dated 2011).
Like-named read-outs stand apart in the source and are kept apart here.

Tests used:
IZN17 [1] = experiment: Competition fluorescence polarization, inhibition of C14wt^Flu·IZN17 complexation; set-up: species or system HIV; settings: read-out: IC50, competition with C14wt^Flu for IZN17 binding
[2] = test system: HeLa-CD4-LTR-β-gal cells and CHO-SEC cells; experiment: Cell-fusion assay (syncitia formation), gp41 mediated fusion; assay type: cell-based, HIV-1; settings: read-out: EC50, inhibition of cell-cell-fusion
IZN17 [3] = experiment: Direct fluorescence polarization binding to gp41 model IZN17; set-up: species or system HIV; settings: fluorescein-labeled ligand, direct FP; read-out: equilibrium affinity (Kd) for IZN17
[4] = Analytical ultracentrifugation, oligomeric state; assay type: physicochemical
hDM21-188 (hDM2) [5] = molecular target: T1, hDM21-188 (hDM2) (Homo sapiens, UniProt Q00987); experiment: Direct fluorescence polarization binding of fluorescein-labeled ligands to hDM2
T1 sequence (Q00987 1-188 limits assumed): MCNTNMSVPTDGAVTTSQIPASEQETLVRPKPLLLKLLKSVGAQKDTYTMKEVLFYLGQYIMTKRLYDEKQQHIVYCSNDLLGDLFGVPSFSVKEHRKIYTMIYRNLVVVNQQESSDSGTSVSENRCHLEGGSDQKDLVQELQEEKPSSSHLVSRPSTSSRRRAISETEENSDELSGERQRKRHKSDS

hDM21-188 (hDM2) [6] = molecular target: T1, hDM21-188 (hDM2); experiment: Competition fluorescence polarization (cFP) assay, inhibition of p53AD^Flu·hDM2 complexation; assay type: binding
carbonic anhydrase II = carbonic anhydrase II (Homo sapiens, UniProt P00918); settings: read-out: Kd for carbonic anhydrase II
calmodulin = calmodulin (Homo sapiens, UniProt P0DP23); settings: read-out: Kd for calmodulin
[7] = Circular dichroism: extent of 14-helix structure in aqueous buffer; assay type: physicochemical; settings: initial CD comparison of β53-1D and β53-1
CREB KID·CBP KIX complex = CREB KID·CBP KIX complex (Homo sapiens, UniProt Q92793); experiment: Inhibition of formation of the unrelated CREB KID·CBP KIX complex; assay type: binding; settings: specificity control
Sequence of CREB KID·CBP KIX complex (Q92793 587-666 limits assumed, one chain of several): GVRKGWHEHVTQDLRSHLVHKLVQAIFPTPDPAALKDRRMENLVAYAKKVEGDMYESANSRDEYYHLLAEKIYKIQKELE

[8] = fluorescein-labeled ligand, read-out: Kd, apparent equilibrium dissociation constant of complexes between fluorescein-labeled ligands and hDM2
[9] = read-out: binding affinity (Kd) for hDM2
[10] = read-out: IC50, inhibition of p53AD^Flu·hDM2 interaction
[11] = competition FP, unlabeled ligand
[12] = concentrations between 80 and 400 μM

## CC[C@H](C)[C@@H](CC(=O)N[C@H](CC(=O)N[C@@H](CCC(=O)O)CC(=O)O)C(C)C)NC(=O)C[C@H](CCCN)NC(=O)C[C@@H](NC(=O)C[C@H](Cc1c[nH]c2ccccc12)NC(=O)C[C@H](CCC(=O)O)NC(=O)C[C@@H](NC(=O)C[C@H](Cc1c[nH]c2ccccc12)NC(=O)C[C@@H](N)CCCN)C(C)C)C(C)C [βWWI-3]
IZN17 [1]
  IC50: 13 ± 4.1 µM
[2]
  EC50: 13 ± 1.9 µM
IZN17 [3]
  Kd: 2.4 ± 0.7 µM

## CC(C)C[C@@H](CC(=O)N[C@@H](CCC(=O)O)CC(=O)N[C@H](CC(=O)N[C@H](CC(=O)N[C@@H](CCCN)CC(=O)N[C@H]1CCCC[C@@H]1C(=O)N[C@H](CC(=O)N[C@@H](CCC(=O)O)CC(=O)O)Cc1ccccc1)Cc1c[nH]c2ccccc12)C(C)C)NC(=O)C[C@@H](NC(=O)C[C@@H](N)CCCN)C(C)C [β53-AC8]
[4]
  oligomeric state: could indicate a monomer-dimer equilibrium at low millimolar concentrations
hDM21-188 (hDM2) [5]; [8]
  Kd: 0.22 ± 0.06 µM
hDM21-188 (hDM2) [6]; unlabeled ligand
  IC50: 10.5 ± 0.8 µM

## CC(C)C[C@@H](CC(=O)N[C@@H](CCC(=O)O)CC(=O)N[C@H]1CCCC[C@@H]1C(=O)N[C@H](CC(=O)N[C@@H](CCCN)CC(=O)N[C@H]1CCCC[C@@H]1C(=O)N[C@H](CC(=O)N[C@@H](CCC(=O)O)CC(=O)O)Cc1ccccc1)Cc1c[nH]c2ccccc12)NC(=O)[C@H]1CCCC[C@@H]1NC(=O)C[C@@H](N)CCCN [β53-ACtrip]
[4]
  oligomeric state: discrete higher-order oligomers, likely hexamers or heptamers
hDM21-188 (hDM2) [5]; [8]
  Kd: 0.17 ± 0.05 µM
hDM21-188 (hDM2) [6]; unlabeled ligand
  IC50: 17.2 ± 1.3 µM

## CC[C@H](C)[C@@H](CC(=O)N[C@H](CC(=O)N[C@@H](CCC(=O)O)CC(=O)N[C@H](CC(=O)N[C@H](CC(=O)N[C@@H](CCCN)CC(=O)N[C@H](CC(=O)N[C@H](CC(=O)N[C@@H](CCC(=O)O)CC(=O)O)Cc1ccccc1)[C@@H](C)CC)Cc1c[nH]c2ccccc12)[C@@H](C)CC)CC(C)C)NC(=O)C[C@@H](N)CCCN [Hit 1]
hDM21-188 (hDM2) [5]; [9]
  Kd: 0.055 ± 0.008 µM
hDM21-188 (hDM2) [6]; [10]
  IC50: 13 ± 1 µM

## CC[C@H](C)[C@@H](CC(=O)N[C@@H](CCC(=O)O)CC(=O)O)NC(=O)C[C@@H](NC(=O)C[C@H](CCCN)NC(=O)C[C@H](Cc1c[nH]c2ccccc12)NC(=O)C[C@@H](NC(=O)C[C@H](CCC(=O)O)NC(=O)C[C@H](Cc1c[nH]c2ccccc12)NC(=O)C[C@@H](NC(=O)C[C@@H](N)CCCN)C(C)C)C(C)C)C(C)C [βWWI-4]
IZN17 [1]
  IC50: 3.3 ± 1.4 µM
[2]
  EC50: 5.3 ± 0.5 µM
IZN17 [3]
  Kd: 1.5 ± 0.4 µM

## CC(C)C[C@@H](CC(=O)N[C@@H](CCC(=O)O)CC(=O)N[C@H](CC(=O)N[C@H](CC(=O)N[C@@H](CCCN)CC(=O)N[C@H](CC(=O)N[C@H](CC(=O)N[C@@H](CCC(=O)O)CC(=O)O)Cc1ccccc1)C(C)C)Cc1c[nH]c2ccccc12)C(C)C)NC(=O)[C@H]1CCCC[C@@H]1NC(=O)C[C@@H](N)CCCN [β53-AC2]
[4]
  oligomeric state: no evidence of oligomerization
hDM21-188 (hDM2) [5]; [8]
  Kd: 0.21 ± 0.04 µM
hDM21-188 (hDM2) [6]; unlabeled ligand
  IC50: 15.5 ± 1 µM

## N[C@H](CC(=O)O)Cc1c[nH]c2ccccc12 [β^3W, β^3-homotyptophan, reference compound]
hDM21-188 (hDM2) [6]; competition FP
  IC50: > 1000 µM

## CC(C)C[C@@H](CC(=O)N[C@@H](CCC(=O)O)CC(=O)N[C@H](CC(=O)N[C@@H](C)CC(=O)N[C@@H](CCCN)CC(=O)N[C@H](CC(=O)N[C@@H](C)CC(=O)N[C@@H](CCC(=O)O)CC(=O)O)C(C)C)C(C)C)NC(=O)C[C@@H](NC(=O)C[C@@H](N)CCCN)C(C)C [β53-L3]
hDM21-188 (hDM2) [6]; [11]
  IC50: > 7000 µM

## CC(C)[C@@H](CC(=O)N[C@H](CC(=O)N[C@@H](CCCN)CC(=O)N[C@H](CC(=O)N[C@@H](C)CC(=O)N[C@@H](CCC(=O)O)CC(=O)O)C(C)C)Cc1c[nH]c2ccccc12)NC(=O)C[C@H](CCC(=O)O)NC(=O)C[C@H](C)NC(=O)C[C@@H](NC(=O)C[C@@H](N)CCCN)C(C)C [β53-W6]
hDM21-188 (hDM2) [6]
  IC50 value fold higher than that of β53-1: 2 fold
hDM21-188 (hDM2) [6]; [11]
  IC50: 198 ± 10 µM

## CC[C@H](C)[C@@H](CC(=O)N[C@H](CC(=O)N[C@@H](CCC(=O)O)CC(=O)N[C@H](CC(=O)N[C@H](CC(=O)N[C@@H](CCCN)CC(=O)N[C@H](CC(=O)N[C@H](CC(=O)N[C@@H](CCC(=O)O)CC(=O)O)C(C)C)Cc1c[nH]c2ccccc12)C(C)C)Cc1c[nH]c2ccccc12)C(C)C)NC(=O)C[C@@H](N)CCCN [βWWI-2]
IZN17 [1]
  IC50: 4.6 ± 0.4 µM
[2]
  EC50: 15 ± 1.6 µM
IZN17 [3]
  Kd: 1 ± 0.3 µM

## CC(C)C[C@@H](CC(=O)N[C@@H](CCC(=O)O)CC(=O)N[C@H]1CCCC[C@@H]1C(=O)N[C@H](CC(=O)N[C@@H](CCCN)CC(=O)N[C@H](CC(=O)N[C@H](CC(=O)N[C@@H](CCC(=O)O)CC(=O)O)Cc1ccccc1)C(C)C)Cc1c[nH]c2ccccc12)NC(=O)C[C@@H](NC(=O)C[C@@H](N)CCCN)C(C)C [β53-AC5]
[4]
  oligomeric state: discrete higher-order oligomers, likely hexamers or heptamers
hDM21-188 (hDM2) [5]; [8]
  Kd: 0.21 ± 0.04 µM
hDM21-188 (hDM2) [6]; unlabeled ligand
  IC50: 60.3 ± 3.8 µM

## CC(C)C[C@@H](CC(=O)N[C@H](CC(=O)N[C@@H](CCC(=O)O)CC(=O)N[C@H](CC(=O)N[C@H](CC(=O)N[C@@H](CCCN)CC(=O)N[C@H](CC(=O)N[C@H](CC(=O)N[C@@H](CCC(=O)O)CC(=O)O)C(C)C)Cc1ccccc1)C(C)C)Cc1c[nH]c2ccccc12)C(C)C)NC(=O)C[C@@H](N)CCCN [β53-3]
[4]; [12]
  oligomeric state: monomeric
hDM21-188 (hDM2) [6]
  IC50: 1590 ± 104 µM

## CC(C)[C@H](N)CC(=O)N[C@H](CC(=O)N[C@@H](CCCN)CC(=O)N[C@H](CC(=O)N[C@H](CC(=O)N[C@@H](CCC(=O)O)CC(=O)O)Cc1ccccc1)C(C)C)Cc1c[nH]c2ccccc12 [β53-6]
hDM21-188 (hDM2) [6]
  IC50 fold better than β53-1 and β53-5: over 2 fold
hDM21-188 (hDM2) [6]; [11]
  IC50: 36.2 ± 2.6 µM

## CC[C@H](C)[C@@H](CC(=O)N[C@@H](CCC(=O)O)CC(=O)N[C@H](CC(=O)N[C@H](CC(=O)N[C@@H](CCCN)CC(=O)N[C@H](CC(=O)N[C@H](CC(=O)N[C@@H](CCC(=O)O)CC(=O)O)Cc1c[nH]c2ccccc12)C(C)C)Cc1c[nH]c2ccccc12)C(C)C)NC(=O)C[C@@H](NC(=O)C[C@@H](N)CCCN)C(C)C [βWWI-1]
IZN17 [1]
  IC50: 4 ± 0.7 µM
Carbonic anhydrase II
  Kd: ≥ 115 µM
[2]
  EC50: 27 ± 2.5 µM
calmodulin
  Kd: ≥ 100 µM
IZN17 [3]
  Kd: 0.75 ± 0.1 µM

## CC(C)C[C@@H](CC(=O)N[C@@H](CCC(=O)O)CC(=O)N[C@H](CC(=O)N[C@H](CC(=O)N[C@@H](CCCN)CC(=O)N[C@H](CC(=O)N[C@H](CC(=O)N[C@@H](CCC(=O)O)CC(=O)O)Cc1ccccc1)C(C)C)Cc1c[nH]c2ccccc12)C(C)C)NC(=O)C[C@@H](NC(=O)C[C@@H](N)CCCN)C(C)C [β53-1]
[4]; at concentrations exceeding 1 mM
  oligomeric state: monomeric
[4]; [12]
  oligomeric state: monomeric
[7]
  mean residue ellipticity: −8450.4 deg·cm^2·dmol^−1
CREB KID·CBP KIX complex
  inhibition of formation of CREB KID·CBP KIX complex: failed to inhibit
hDM21-188 (hDM2) [5]; [8]
  Kd: 0.37 ± 0.08 µM
hDM21-188 (hDM2) [6]; [11]
  IC50: 94.5 ± 4.4 µM

## CC(C)C[C@H](N)CC(=O)N[C@@H](CCC(=O)O)CC(=O)N[C@H](CC(=O)N[C@H](CC(=O)N[C@@H](CCCN)CC(=O)N[C@H](CC(=O)N[C@H](CC(=O)N[C@@H](CCC(=O)O)CC(=O)O)Cc1ccccc1)C(C)C)Cc1c[nH]c2ccccc12)C(C)C [β53-5]
hDM21-188 (hDM2) [6]; [11]
  IC50: 80.8 ± 3.2 µM

## CC(C)[C@@H](CC(=O)N[C@H](CC(=O)N[C@@H](CCC(=O)O)CC(=O)O)Cc1ccccc1)NC(=O)C[C@H](CCCN)NC(=O)C[C@H](C)NC(=O)C[C@@H](NC(=O)C[C@H](CCC(=O)O)NC(=O)C[C@H](C)NC(=O)C[C@@H](NC(=O)C[C@@H](N)CCCN)C(C)C)C(C)C [β53-F9]
hDM21-188 (hDM2) [6]; [11]
  IC50: 1700 ± 163 µM

## CC[C@H](C)[C@@H](CC(=O)N[C@H](CC(=O)N[C@@H](CCC(=O)O)CC(=O)N[C@H](CC(=O)N[C@H](CC(=O)N[C@@H](CCCN)CC(=O)N[C@H](CC(=O)N[C@H](CC(=O)N[C@@H](CCC(=O)O)CC(=O)O)Cc1ccccc1)C(C)C)Cc1c[nH]c2ccccc12)[C@@H](C)CC)CC(C)C)NC(=O)C[C@@H](N)CCCN [Hit 2]
hDM21-188 (hDM2) [5]; [9]
  Kd: 0.089 ± 0.02 µM
hDM21-188 (hDM2) [6]; [10]
  IC50: 11 ± 1 µM

## CC(C)[C@H](N)CC(=O)N[C@H](CC(=O)N[C@@H](CCC(=O)O)CC(=O)NCCC(=O)O)Cc1c[nH]c2ccccc12 [β53-7, reference compound]
hDM21-188 (hDM2) [6]; competition FP
  IC50: > 1000 µM
